Assay: Reaction of entecavir with sweetener or flavoring agent that contains aldehyde and/or ketone groups
Type: physicochemical
Text: While entecavir is potent, it is also extremely bitter. To combat the bitterness, a sweetener is generally used. However, entecavir has shown a tendency to react with commonly used sweeteners, such as sucrose, creating stability concerns. Entecavir has a primary amine group in its structure that has the propensity to react with any sweetener or flavoring agent that contains aldehyde and/or ketone groups.

C=C1[C@H](CO)[C@@H](O)C[C@@H]1n1cnc2c(=O)[nH]c(N)nc21 [Entecavir, [1S-(1α,3α,4β)]-2-amino-1,9-dihydro-9-[4-hydroxy-3-(hydroxymethyl)-2-methylenecyclopentyl]-6H-purin-6-one]
reaction with sweetener or flavoring agent that contains aldehyde and/or ketone groups (pH 5 to 7): minimized
reaction with sweetener or flavoring agent that contains aldehyde and/or ketone groups (weakly acidic pH (pH 3 to 4)): more pronounced

— patent publication US20030190334A1, “Low dose liquid entecavir formulations and use” (priority 2002, published 2003)
